Measurements: patent publication US7850984B2, “Protection of the female reproductive system from natural and artificial insults” (The General Hospital Corporation, priority 2000, dated 2010)
“Also recorded” adds a separate entry of the source.

Columns and labels:
[1] = system: polychromatic erythrocytes of F0, F1 and F2 mice; experiment: Micronuclei assay in polychromatic erythrocytes of tail blood; format: in vivo, mouse
Description: To evaluate the possibility of transgenerational transmission of DNA damage, the frequency of micronuclei is used as a sensitive indicator of the extent of propagated genomic damage (Trott, K. R., Jamali, M., Manti, L. & Teibe, A. Manifestations and mechanisms of radiation-induced genomic instability in V-79 Chinese hamster cells. Int. J. Radiat. Biol. 74, 787-791 (1998); Manti, L., Jamali, M., Prise, K. M., Michael B. D. & Trott, K. R. Genomic instability in Chinese hamster ovary cells after exposure to X rays or alpha particles of different mean energy transfer. Radiat. Res. 147, 22-28 (1997)). Tail blood samples from 16-18 month old non-irradiated, vehicle-treated and irradiated, or S1P-treated and irradiated F0 mice, 16-18 month old F1 mice, or 12-16 month old F2 mice, are smeared onto glass microscope slides coated with acridine orange (Shinko Corporation, New York, N.Y.), and coded prior to analysis. The frequency of micronuclei is then assessed in the 10^3 polychromatic erythrocytes by flourescence microscopy (Hayashi, M., Morita, T., Kodama, Y., Sofuni, T., & Ishidate, M., Jr. The micronucleus assay with mouse peripheral blood reticulocytes using acridine orange-coated slides. Mutat. Res. 245, 245-249 (1990)), after which the slides are decoded for data interpretation.

F1 and F2 mice = experiment: Necropsy, histology and hematology of F1 and F2 offspring; format: in vivo; settings: for HCT / HGB, Hemoglobin / MCH, Mean Corpuscular Hemoglobin / MCHC, Mean Corpuscular Hemoglobin Content / MCV, Mean Corpuscular Volume / RBC, Red Blood Cell Count / WBC, Total White Blood Cell Count: 0.1 Gy + S1P, mean, 95% confidence limit; for Pathology, gross necropsy / Pathology, histology: offspring of 0.1 Gy + S1P mothers
Method: When the F1 animals reach 18-20 months of age and the F2 animals reach 12-16 months of age, all mice are euthanized and subjected to gross necropsy and biochemical analysis. Organs from a subgroup of 65 randomly selected animals in the two different generations are also subjected to complete histologic analysis.
Eighteen to 20 month-old F1 mice, and 12-16 month-old F2 mice, are euthanized and gross pathology is assessed immediately upon death. In a total of 484 mice, the heart, lung, stomach, small and large intestine, liver, salivary gland, kidney, urinary bladder, brain, cervical spinal cord, muscle, bone, bone marrow, skin, pituitary, thyroid, pancreas, adrenal, lymph node, spleen, thymus, testis (males), seminal vesicle (males), prostate (males), ovary (females), and uterus (females) are evaluated. Any organ showing gross abnormalities is fixed with 10% paraformaldehyde, encased in paraffin, and stained with hematoxylin and eosin for in-depth histologic analysis. Furthermore, histology on all organs is performed on 65 randomly selected mice of different generations (F1 or F2), different genders, and different experimental treatments. From an additional 28 randomly-selected mice, blood is collected by cardiac puncture for hematologic analysis, and in 9 animals full differential counts are performed. Differential white cell counts are also performed in all mice displaying a pathological phenotype.

oocytes = settings: mouse oocytes cultured with S1P before doxorubicin exposure; Perez et al. (1997); cited from earlier work
[2] = N=189, numbers in parenthesis = animals

CCCCCCCCCCCCC/C=C/[C@@H](O)[C@@H](N)COP(=O)(O)O [S1P, sphingosine-1-phosphate]
frequency of micronuclei in F0 animals versus non-irradiated controls ([1]; 0.1 Gy, S1P-treated, statistically significant (P<0.01)): small increase in the frequency of micronuclei over non-irradiated controls | frequency of micronuclei, vehicle-treated versus S1P-treated irradiated mice ([1]; F0, 0.1 Gy): no significant difference in the frequency of micronuclei | HCT (F1 and F2 mice; first group (N=69)): 45.4 | HGB, Hemoglobin (F1 and F2 mice; first group (N=69)): 14.2 g/dL | MCH, Mean Corpuscular Hemoglobin (F1 and F2 mice; first group (N=69)): 15.3 pg | MCHC, Mean Corpuscular Hemoglobin Content (F1 and F2 mice; first group (N=69)): 31.4 g/dL | MCV, Mean Corpuscular Volume (F1 and F2 mice; first group (N=69)): 49.1 fL | RBC, Red Blood Cell Count (F1 and F2 mice; first group (N=69)): 9.3e+12 L⁻¹ | WBC, Total White Blood Cell Count (F1 and F2 mice; first group (N=69)): 1.09e+10 L⁻¹ | HCT (F1 and F2 mice; second group (N=189)): 46.3 | HGB, Hemoglobin (F1 and F2 mice; second group (N=189)): 14.9 g/dL | MCH, Mean Corpuscular Hemoglobin (F1 and F2 mice; second group (N=189)): 15.9 pg | MCHC, Mean Corpuscular Hemoglobin Content (F1 and F2 mice; second group (N=189)): 30.8 g/dL | MCV, Mean Corpuscular Volume (F1 and F2 mice; second group (N=189)): 49.2 fL | RBC, Red Blood Cell Count (F1 and F2 mice; second group (N=189)): 9.4e+12 L⁻¹ | WBC, Total White Blood Cell Count (F1 and F2 mice; second group (N=189)): 1.1e+10 L⁻¹ | gross histologic or biochemical abnormalities in offspring (F1 and F2 mice; F1 at 18-20 months, F2 at 12-16 months): No gross histologic or biochemical abnormalities | Pathology, gross necropsy (F1 and F2 mice; N=69): Enlarged uterus; also recorded: Perineal tumor | Pathology, histology (F1 and F2 mice; N=69, numbers in parenthesis = animals): LI in liver (2); also recorded: LI in lung (3); also recorded: Mucometra; also recorded: Lipoma | Pathology, gross necropsy (F1 and F2 mice; [2]): Dermatitis (3); also recorded: Cyst in right ovary; also recorded: Alopecia; also recorded: Traumatic injury | Pathology, histology (F1 and F2 mice; [2]): LI in lung (7); also recorded: Liver (3); also recorded: Kidney; also recorded: Ovarian cyst | protection of oocytes from doxorubicin-induced death in vitro (oocytes): protected the oocytes from death induced by subsequent doxorubicin exposure for up to 24 hours
